According to PMC7558282, “The Anticancer Activity for the Bumetanide-Based Analogs via Targeting the Tumor-Associated Membrane-Bound Human Carbonic Anhydrase-IX Enzyme” (Pharmaceuticals, 2020):
Where “and” joins values, the source holds several entries; their conditions need not be identical. Identical values can stand only once.

How the values were obtained:
[1] = target: tumor-associated hCA isoforms; parameters: method as in PMID 18600270, PMID 18374572; conditions: cited from earlier work
mitochondrial hCAs = target: mitochondrial hCAs; parameters: method as in PMID 18600270, PMID 18374572; conditions: read-out: inhibition for mitochondrial hCAs (moderate); cited from earlier work
cytosolic hCAs = target: cytosolic hCAs; parameters: method as in PMID 18600270, PMID 18374572; conditions: read-out: inhibition for cytosolic hCAs (weak); cited from earlier work
hCA-IX [2] = target: T1, hCA-IX (Homo sapiens, UniProt Q16790); parameters: purchased BPS Bioscience 71101; conditions: compared with compound 2; no reference given; cited from earlier work
hCA-II = hCA-II (Homo sapiens, UniProt P00918); experiment: colorimetric CA-inhibition assay based on CA-esterase activity, hCA-II; conditions: hCA-II IC50, three replicate experiments; N/D = non-detected IC50 within the range of the tested concentrations
Procedure: (§2) Based on the kit manufacturer’s protocol, the candidate inhibitors were dissolved in DMSO at 10 × highest final test concentration and specific aliquots of such working dilutions were incubated with the target hCA isozyme for 10 min at room temperature prior to permit the formation of the enzyme-inhibitor complex. Triplicate experiments were performed for each candidate inhibitor concentration. Parallel wells of solvent and enzyme controls were prepared to test the solvent impact upon the activity of the target enzyme. […] Following incubation, the CA-substrate was added and changes in absorbance (at 405 nm) were monitored for 60 min at room temperature within the kinetic mode. The negative enzyme control wells (without added compounds) were arbitrarily set as 100% enzyme activity. […] Absorbance readings from background wells were subtracted from the compound assay wells in order to account for background hydrolysis activity caused by the buffer solution [44, 45].

hCA-IX [3] = target: T1, hCA-IX; experiment: colorimetric CA-inhibition assay based on CA-esterase activity, hCA-IX; conditions: for IC50: hCA-IX IC50, three replicate experiments; for Selectivity Ratio II/IX: ratio of IC50 values for isozyme CA-II relative to CA-IX
Procedure: as §2

[4] = tested on: A-498 kidney carcinoma cells; experiment: MTT cell proliferation assay, A-498; assay type: cell-based, human; conditions: ±SEM
Procedure: (§1) Cells were cultured in 96-well plate, at cell density of 1.2–1.8 × 10^4 cells/well, using Dulbecco’s Modified Eagle Medium (Invitrogen^TM, Carlsbad, CA, USA) supplemented with 10% (w/v) fetal bovine serum (Hyclone^TM, Marlborough, MA, USA), 10 ug/mL of insulin (Sigma-Aldrich^TM, St. Louis, MO, USA), and 1% (w/v) penicillin-streptomycin (Sigma-Aldrich^TM, St. Louis, MO, USA). Following 24h-incubation period under 5% CO2 at 37 °C, cells were treated with compounds’ serial concentrations (0.1 µM–100 µM) in DMSO, where the DMSO final concentration in the culture medium never exceeded 0.2% (v/v). Subsequently, the treated microplates were incubated for 48 h at 5% CO2/37 °C prior to examination under the inverted microscope and proceeding for the MTT assay. The culture medium was discarded and 100 µL of complete medium comprising 5 mg/mL MTT dye were dispensed within every well, then plates were reincubated for 2 h at 5% CO2/37 °C. […] Color intensity within each well was measured spectrophotometrically using the ROBONIK-P2000® ELISA microplate reader (Bio-Tek^TM, Winooski, VT, USA) at 450 nm while subtracting the background absorbance of multi well plates at 690 nm. The experiment was conducted in triplicates and IC50 values were estimated through linear regression between the logarithm-transformed compound concentrations and corresponding % cell viability = (mean absorbance in test wells/mean absorbance in control wells) ∗ 100, having the response variable slope (four parameters) for all samples.

[5] = tested on: SCaBER bladder squamous cell carcinoma cells; experiment: MTT cell proliferation assay, SCaBER; assay type: cell-based; conditions: Homo sapiens, 48 h, ±SEM
Procedure: as §1

## CCCCNc1cc(C(=O)O)cc(S(N)(=O)=O)c1Oc1ccccc1 [Bumetanide, bumetanide]
[1]
  Ki on the tumor-associated hCA isoforms: 21.1 to 25.8 nM
Mitochondrial hCAs
  Ki: 250 to 700 nM
Cytosolic hCAs
  Ki: 2570 to 6980 nM
hCA-IX [2]
  hCA-IX inhibition of bumetanide: ~ 23 nM

## CCCCNc1cc(C(=O)OC)cc(S(N)(=O)=O)c1Oc1ccccc1 [Compound 2, bumetanide methyl ester]
hCA-II
  IC50: 668 nM
hCA-IX [3]
  IC50: 23.7 nM
  Selectivity Ratio II/IX: 28.1

## CCCCNc1cc(C(=O)NN)cc(S(N)(=O)=O)c1Oc1ccccc1 [Compound 3, bumetanide hydrazide]
hCA-II
  IC50: 1610 nM
hCA-IX [3]
  IC50: 7.87 nM
  Selectivity Ratio II/IX: 205.1

## CCCCNc1cc(C(=O)N2N=CCC2=O)cc(S(N)(=O)=O)c1Oc1ccccc1 [Compound 4]
hCA-II
  IC50: 1050 nM
hCA-IX [3]
  IC50: 16.4 nM
  Selectivity Ratio II/IX: 63.9

## CCCCNc1cc(-c2n[nH]c(=S)o2)cc(S(N)(=O)=O)c1Oc1ccccc1 [Compound 5]
hCA-II
  IC50: 486 nM
hCA-IX [3]
  IC50: 12.4 nM
  Selectivity Ratio II/IX: 39.0

## CCCCNc1cc(C(=O)n2nc(C)cc2C)cc(S(N)(=O)=O)c1Oc1ccccc1 [Compound 6a]
hCA-IX [3]
  IC50: 16.6 nM

## CCCCNc1cc(C(=O)n2nc(C)cc2-c2ccccc2)cc(S(N)(=O)=O)c1Oc1ccccc1 [Compound 6b]
hCA-II
  IC50: 858 nM
hCA-IX [3]
  IC50: 5.43 nM
  Selectivity Ratio II/IX: 158.9

## CCCCNc1cc(C(=O)NNC(=S)Nc2ccccc2)cc(S(N)(=O)=O)c1Oc1ccccc1 [Compound 7a]
hCA-II
  IC50: 1570 nM
hCA-IX [3]
  IC50: 17.7 nM
  Selectivity Ratio II/IX: 88.6

## C=CCNC(=S)NNC(=O)c1cc(NCCCC)c(Oc2ccccc2)c(S(N)(=O)=O)c1 [Compound 7b]
hCA-II
  IC50: 1340 nM
hCA-IX [3]
  IC50: 14.4 nM
  Selectivity Ratio II/IX: 93.4

## CCCCNc1cc(C(=O)NNC(=S)Nc2ccc(Br)cc2)cc(S(N)(=O)=O)c1Oc1ccccc1 [Compound 7c]
hCA-II
  IC50: 1540 nM
hCA-IX [3]
  IC50: 12.9 nM
  Selectivity Ratio II/IX: 118.9

## CCCCNc1cc(C(=O)N/N=c2\scc(-c3ccc(Cl)cc3)n2-c2ccccc2)cc(S(N)(=O)=O)c1Oc1ccccc1 [Compound 8a]
[4]; 48 h
  IC50: 15700 ± 630 nM
[4]; Homo sapiens, A498, 48 h
  IC50: 15600 nM
[5]
  IC50: 28400 ± 1400 nM
hCA-II
  IC50: 251 nM
hCA-IX [3]
  IC50: 6.53 nM
  Selectivity Ratio II/IX: 38.6

## CCCCNc1cc(C(=O)N/N=c2\scc(-c3ccc(C)cc3)n2-c2ccccc2)cc(S(N)(=O)=O)c1Oc1ccccc1 [Compound 8b]
hCA-II
  IC50: 1320 nM
hCA-IX [3]
  IC50: 13 nM
  Selectivity Ratio II/IX: 101.6

## CCCCNc1cc(C(=O)N/N=c2\scc(-c3ccc(OC)cc3)n2-c2ccccc2)cc(S(N)(=O)=O)c1Oc1ccccc1 [Compound 8c]
hCA-II
  IC50: 474 nM
hCA-IX [3]
  IC50: 12.6 nM
  Selectivity Ratio II/IX: 37.5

## C=CCn1c(-c2ccc(Cl)cc2)cs/c1=N\NC(=O)c1cc(NCCCC)c(Oc2ccccc2)c(S(N)(=O)=O)c1 [Compound 8d]
hCA-II
  IC50: 5120 nM
hCA-IX [3]
  IC50: 6.36 nM
  Selectivity Ratio II/IX: 804.6

## C=CCn1c(-c2ccc(C)cc2)cs/c1=N\NC(=O)c1cc(NCCCC)c(Oc2ccccc2)c(S(N)(=O)=O)c1 [Compound 8e]
hCA-II
  IC50: 518 nM
hCA-IX [3]
  IC50: 11.5 nM
  Selectivity Ratio II/IX: 44.9

## C=CCn1c(-c2ccc(OC)cc2)cs/c1=N\NC(=O)c1cc(NCCCC)c(Oc2ccccc2)c(S(N)(=O)=O)c1 [Compound 8f]
hCA-II
  IC50: 999 nM
hCA-IX [3]
  IC50: 13.4 nM
  Selectivity Ratio II/IX: 74.5

## CCCCNc1cc(C(=O)N/N=c2\scc(-c3ccc(Cl)cc3)n2-c2ccc(Br)cc2)cc(S(N)(=O)=O)c1Oc1ccccc1 [Compound 8g]
hCA-II
  IC50: 784 nM
hCA-IX [3]
  IC50: > 7 nM and 7.18 nM
  Selectivity Ratio II/IX: 109.2

## CCCCNc1cc(C(=O)N/N=c2\scc(-c3ccc(C)cc3)n2-c2ccc(Br)cc2)cc(S(N)(=O)=O)c1Oc1ccccc1 [Compound 8h]
[4]; Homo sapiens, A498, 48 h
  IC50: 6550 ± 260 nM
[5]
  IC50: 78040 ± 290 nM
hCA-II
  IC50: 205 nM and 209 nM
hCA-IX [3]
  IC50: > 7 nM and 14.3 nM
  Selectivity Ratio II/IX: 14.5

## CCCCNc1cc(C(=O)N/N=c2\scc(-c3ccc(OC)cc3)n2-c2ccc(Br)cc2)cc(S(N)(=O)=O)c1Oc1ccccc1 [Compound 8i]
hCA-II
  IC50: 426 nM
hCA-IX [3]
  IC50: > 7 nM and 10.6 nM
  Selectivity Ratio II/IX: 40.3

## CCCCNc1cc(-c2n[nH]c(=S)n2-c2ccccc2)cc(S(N)(=O)=O)c1Oc1ccccc1 [Compound 9a]
hCA-II
  IC50: 4060 nM
hCA-IX [3]
  IC50: 5.31 nM
  Selectivity Ratio II/IX: 764.8

## C=CCn1c(-c2cc(NCCCC)c(Oc3ccccc3)c(S(N)(=O)=O)c2)n[nH]c1=S [Compound 9b]
[4]; 48 h
  IC50: 16100 ± 1400 nM
[4]; Homo sapiens, A498, 48 h
  IC50: 16000 nM
[5]
  IC50: 78100 ± 1700 nM
hCA-II
  IC50: 205 nM
hCA-IX [3]
  IC50: 7.25 nM
  Selectivity Ratio II/IX: 28.3
